Data on 2 compounds can be found in patent US4659712A, “Fodder additive and a process for the preparation” (Richter Gedeon Vegyeszeti Gyar Rt., priority 1984, dated 1987).

For series [1], the system named is E.coli infections and dysentery. As to conditions: pigs; cited from earlier work.
The conditions of series [2]: in vivo; cited from earlier work.
A short description of series [3]: Quinoxaline-2-carboxylic acid (Carbadox metabolite) residue in pig muscle (ham, chop), liver and kidney after flumecinol treatment. Type of series: in vivo, pigs. The procedure: Tests were carried out at a large-scale pig farm, where 25 mg/kg of body weight of Carbadox admixed with the fodder of the pigs were administered to pigs having a live weight of 40 kg. From a population fed with this fodder 27 animals, each weighing exactly 40 kg, were selected, by weighing them separately. The selected animals were railed off in a place suitable for further tests. From this time on (zero time) the animals were given the same fodder as before, except Carbadox.
The 27 animals were divided into three groups as follows:
Group I: 12 animals (ser. Nos. from 1 to 12) slaughtering: three animals each when starting the experiment (0 time) and on the 1st, 5th and 15th days (positive control group) Group II: 9 amimals (ser. Nos. from 13 to 21) treatment: a single 40 mg/kg of body weight dose of flumecinol at zero time. slaughtering: three animals each on the 1st, 5th and 15th days (group treated with a single dose of flumecinol) Group III: 6 animals (ser. Nos. 22 to 27) treatment: 40 mg/kg of body weight of flumecinol for three days, at zero time and on the 1st and 2nd day slaughtering: three animals each on the 5th and 15th days (group treated with flumecinol three times) Flumecinol is available as a micropellet containing 19.02% of active ingredient. From this and a 1% starch hydrolysate a suspension is prepared, containing 40 mg of flumecinol per 1 ml (dose used for one kg of body weight). The active compound was administered 8 o'clock in the morning, without previous fasting, through a stomach tube, in order to ensure exact conditions for the experiments. The animals were killed and samples were taken from 8 to 11 o'clock in the morning, whereupon the samples were transported into the analytical laboratory within one hour, under cooling.
Quinoxaline-2-carboxylic acid (a metabolite of Carbadox) was determined in the chop, liver and kidney tissues of three animals from each group. Each muscle and liver sample was subjected to organoleptic examination also (boiling test).
The quantity of quinoxaline-2-carboxylic acid was determined essentially following the method described in the USDA Chemistry Laboratory Guidebook (5007 Determination of Carbadox):
Following the alkaline hydrolysis of the muscle, liver and kidney samples, the hydrolysates were strongly acidified and the quinoxaline-2-carboxylic acid was extracted with ethyl acetate. The pH of the ethyl acetate extract was adjusted to 6 with a citric acid buffer, whereupon the mixture was extracted with benzene. In the next step the acid was esterified with a mixture of n-propanol and sulfuric acid, to yield propyl quinoxaline-2-carboxylate. The quantity of the latter compound was determined (after purification by thin layer chromatography) by gas chromatography. This cumbersome test procedure was always performed together with a […] control sample to which a known amount (0.2 μg-1.0 μg) of quinoxaline-2-carboxylic acid (standard) was added. The percentage of the active ingredient recovered from this sample was taken into account when calculating the residual active substance amount. In this way the error of the process was eliminated.
The test results, if not otherwise indicated, are given in μg/kg.
The quantity of quinoxaline-2-carboxylic acid in the above-specified slaughtering times is shownn in Table 1. The tests were carried out on three animals and Table 1 contains the results obtained on the individual animals. The results were also statistically evaluated for the various sorts of tissues, although in this specific case this was not really necessary, since according to the valid prescriptions the products of animal origin should not contain Carbadox at all, i.e. the limit is zero. Therefore, we considered it more important to determine when the animal tissues become entirely Carbadox-free, than to observe the differences among the tissues of the various groups of animals in the time when they were killed.

For series [4] the following is noted: administered as a fodder additive; cited from earlier work.

Take `COC(=O)NN=Cc1c[n+]([O-])c2ccccc2[n+]1[O-]` [Carbadox, 3-(2-quinoxalinylmethylene)-carbazic acid methyl ester N,N'-dioxide, reference compound]: the “potency in the treatment and prophylaxis of E.coli infections and dysentery” value in series [1] was “very potent”. In series [2], the “elimination rate from the animals” value was “eliminated from the animals at a very low rate”. The “amount of residue in liver, change from initial” value in series [3] (control group, 1st day) was “further increased on the 1st day”. Besides, the “level of residue in liver” value in series [3] (control group, 15th day) is reported as “a level identical with the initial concentration in the muscles”. Further, in series [3] (liver), the “amount of the Carbadox metabolite residue in the liver vs. muscle” value is recorded as “one order of magnitude higher than in the muscle tissue”. Also, the “increasing the weight gain of animals” value in series [4] was “one of the most efficious agents employed for increasing the weight gain of animals”.
On to `O=C(O)c1cnc2ccccc2n1` [quinoxaline-2-carboxylic acid, Quinoxaline-2-carboxylic acid], for which the “quinoxaline-2-carboxylic acid in muscle, kidney and liver tissues” value in series [3] (Carbadox, no flumecinol, 15th day following termination) is “significant amount”. Further, the “quinoxaline-2-carboxylic acid in the kidney” value in series [3] (control group, 15th day) is “detected in the kidney even on the 15th day”. Besides, in series [3] (positive control, 15 days after termination of Carbadox administration), the “presence in muscle tissue” value is reported as “present in the muscle tissue even 15 days after the termination of Carbadox administration, in a significant amount”. In series [3] (positive control, muscle tissue), the “residual concentration, chop vs. ham” value was “always higher in the chop than in the ham muscle”.
